From the NIST ThermoML archive (doi:10.1021/acs.jced.7b01004)

How the values were obtained:
[1] = xn = mol fraction of the nth substance listed; details: 99.6 kPa, Liquid, x1 = 0.5; for viscosity: Concentric cylinders viscometry; for mass density: Vibrating tube method
[2] = refractive index (Na D-line) (dimensionless); xn = mol fraction of the nth substance listed; details: 293.15 K; 99.6 kPa; Liquid; Standard Abbe refractometry; x1 = 0.5

CCCCn1cc[n+](C)c1.CS(=O)(=O)[O-] [1-butyl-3-methylimidazolium methanesulfonate] + NC(N)=O
[1]
Details | mass density [kg/m3] | viscosity [mPa·s]
293.15 K | 1202.2 | 1892.9
303.15 K | 1195.6 | 686.69
313.15 K | 1189.2 | 295.72
323.15 K | 1182.7 | 145.85
333.15 K | 1176.3 | 80.41

Details | refractive index
[2] | 1.493
